Target: T1, AXL (fusion protein of amino acids 464-885 of the intracellular domain of human AXL with glutathione transferase) (Homo sapiens, UniProt P30530)
T1 sequence (P30530 464-885 isoform P30530-2): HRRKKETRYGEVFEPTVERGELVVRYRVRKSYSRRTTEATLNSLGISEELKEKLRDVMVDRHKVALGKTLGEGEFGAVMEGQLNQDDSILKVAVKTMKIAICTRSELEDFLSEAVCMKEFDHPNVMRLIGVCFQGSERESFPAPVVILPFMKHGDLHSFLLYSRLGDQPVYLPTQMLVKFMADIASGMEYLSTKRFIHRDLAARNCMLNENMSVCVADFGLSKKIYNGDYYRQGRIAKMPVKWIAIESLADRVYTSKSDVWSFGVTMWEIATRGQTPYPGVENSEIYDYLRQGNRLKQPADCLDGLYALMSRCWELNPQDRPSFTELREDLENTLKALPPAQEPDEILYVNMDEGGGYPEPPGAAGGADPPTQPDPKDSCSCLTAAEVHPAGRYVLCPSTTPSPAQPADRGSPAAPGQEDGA
Experiment: Cell-Free Axl Kinase Inhibitory Activity

Structure (SMILES) | IC50
Cn1cc(-c2cnc(N)c(-c3ccc(NC(=O)c4cn(CC(F)F)cc(-c5ccc(F)cc5)c4=O)cc3)c2)cn1 [Example 49, N-{4-[2-Amino-5-(1-methyl-1H-pyrazol-4-yl)pyridin-3-yl]phenyl}-1-(2,2-difluoroethyl)-5-(4-fluorophenyl)-4-oxo-1,4-dihydropyridine-3-carboxamide] | 1 to 10 nM
Cn1cc(-c2cnc(N)c(-c3ccc(NC(=O)c4cn(CC(F)(F)F)cc(-c5ccc(F)cc5)c4=O)cc3)c2)cn1 [Example 50, N-{4-[2-Amino-5-(1-methyl-1H-pyrazol-4-yl)pyridin-3-yl]phenyl}-5-(4-fluorophenyl)-4-oxo-1-(2,2,2-trifluoroethyl)-1,4-dihydropyridine-3-carboxamide] | 0.1 to 1 nM
Cn1cc(-c2cnc(N)c(-c3ccc(NC(=O)c4cn(Cc5ccccc5)cc(-c5ccc(F)cc5)c4=O)cc3)c2)cn1 [Example 51, N-{4-[2-Amino-5-(1-methyl-1H-pyrazol-4-yl)pyridin-3-yl]phenyl}-1-benzyl-5-(4-fluorophenyl)-4-oxo-1,4-dihydropyridine-3-carboxamide] | 0.1 to 1 nM
CCn1cc(C(=O)Nc2ccc(-c3cc(-c4cnn(C)c4)cnc3N)cc2)c(=O)c(-c2ccccc2)c1 [Example 52, N-{4-[2-Amino-5-(1-methyl-1H-pyrazol-4-yl)pyridin-3-yl]phenyl}-1-ethyl-4-oxo-5-phenyl-1,4-dihydropyridine-3-carboxamide] | 1 to 10 nM
Cn1cc(-c2cnc(N)c(-c3ccc(NC(=O)c4cn(CCF)cc(-c5ccccc5)c4=O)cc3)c2)cn1 [Example 53, N-{4-[2-Amino-5-(1-methyl-1H-pyrazol-4-yl)pyridin-3-yl]phenyl}-1-(2-fluoroethyl)-4-oxo-5-phenyl-1,4-dihydropyridine-3-carboxamide] | 1 to 10 nM
Cn1cc(-c2cnc(N)c(-c3ccc(NC(=O)c4cn(CC(F)(F)F)cc(-c5ccccc5)c4=O)cc3)c2)cn1 [Example 54, N-{4-[2-Amino-5-(1-methyl-1H-pyrazol-4-yl)pyridin-3-yl]phenyl}-4-oxo-5-phenyl-1-(2,2,2-trifluoroethyl)-1,4-dihydropyridine-3-carboxamide] | 1 to 10 nM
Cn1cc(-c2cnc(N)c(-c3ccc(NC(=O)c4cn(CCF)cc(-c5ccccc5)c4=O)cc3F)c2)cn1 [Example 55, N-{4-[2-Amino-5-(1-methyl-1H-pyrazol-4-yl)pyridin-3-yl]-3-fluorophenyl}-1-(2-fluoroethyl)-4-oxo-5-phenyl-1,4-dihydropyridine-3-carboxamide] | 1 to 10 nM
Cn1cc(-c2cnc(N)c(-c3ccc(NC(=O)c4cn(Cc5ccc(F)cc5)ccc4=O)cc3)c2)cn1 [Example 56, N-{4-[2-Amino-5-(1-methyl-1H-pyrazol-4-yl)pyridin-3-yl]phenyl}-1-(4-fluorobenzyl)-4-oxo-1,4-dihydropyridine-3-carboxamide] | 1 to 10 nM
Cc1cc(=O)c(C(=O)Nc2ccc(-c3cc(-c4cnn(C)c4)cnc3N)cc2)cn1Cc1ccc(F)cc1 [Example 57, N-{4-[2-Amino-5-(1-methyl-1H-pyrazol-4-yl)pyridin-3-yl]phenyl}-1-(4-fluorobenzyl)-6-methyl-4-oxo-1,4-dihydropyridine-3-carboxamide] | 1 to 10 nM
Cc1cn(Cc2ccc(F)cc2)cc(C(=O)Nc2ccc(-c3cc(-c4cnn(C)c4)cnc3N)cc2)c1=O [Example 58, N-{4-[2-Amino-5-(1-methyl-1H-pyrazol-4-yl)pyridin-3-yl]phenyl}-1-(4-fluorobenzyl)-5-methyl-4-oxo-1,4-dihydropyridine-3-carboxamide] | 1 to 10 nM
COc1cn(Cc2ccc(F)cc2)cc(C(=O)Nc2ccc(-c3cc(-c4cnn(C)c4)cnc3N)cc2)c1=O [Example 59, N-{4-[2-Amino-5-(1-methyl-1H-pyrazol-4-yl)pyridin-3-yl]phenyl}-1-(4-fluorobenzyl)-5-methoxy-4-oxo-1,4-dihydropyridine-3-carboxamide] | 10 to 20 nM
CN(C)C(=O)c1cn(Cc2ccc(F)cc2)cc(C(=O)Nc2ccc(-c3cc(-c4cnn(C)c4)cnc3N)cc2)c1=O [Example 60, N′-{4-[2-Amino-5-(1-methyl-1H-pyrazol-4-yl)pyridin-3-yl]phenyl}-1-(4-fluorobenzyl)-N,N-dimethyl-4-oxo-1,4-dihydropyridine-3,5-dicarboxamide] | 1 to 10 nM
COc1ccc(-n2cc(-c3ccc(F)cc3)c(=O)c(C(=O)Nc3ccc(-c4cc(-c5cnn(C)c5)cnc4N)cc3)n2)cc1 [Example 61, N-{4-[2-Amino-5-(1-methyl-1H-pyrazol-4-yl)pyridin-3-yl]phenyl}-5-(4-fluorophenyl)-1-(4-methoxyphenyl)-4-oxo-1,4-dihydropyridazine-3-carboxamide] | 1 to 10 nM
Nc1ncc(-c2cnn(C3CCNCC3)c2)cc1-c1ccc(NC(=O)c2cn(CCF)cc(-c3ccc(F)cc3)c2=O)cc1 [Example 62, N-{4-[2-Amino-5-(1-piperidin-4-yl-1H-pyrazol-4-yl)pyridin-3-yl]phenyl}-1-(2-fluoroethyl)-5-(4-fluorophenyl)-4-oxo-1,4-dihydropyridine-3-carboxamide] | 0.1 to 1 nM
CCn1cc(C(=O)Nc2ccc(-c3cc(-c4cnn(C[C@H]5COCCO5)c4)cnc3N)cc2)c(=O)c(-c2ccc(F)cc2)c1 [Example 64, N-[4-(2-Amino-5-{1-[(2S)-1,4-dioxan-2-ylmethyl]-1H-pyrazol-4-yl}pyridin-3-yl)phenyl]-1-ethyl-5-(4-fluorophenyl)-4-oxo-1,4-dihydropyridine-3-carboxamide] | 0.1 to 1 nM
Nc1ncc(-c2cnn(C[C@H]3COCCO3)c2)cc1-c1ccc(NC(=O)c2cn(CCF)cc(-c3ccc(F)cc3)c2=O)cc1 [Example 65, N-[4-(2-Amino-5-{1-[(2S)-1,4-dioxan-2-ylmethyl]-1H-pyrazol-4-yl}pyridin-3-yl)phenyl]-1-(2-fluoroethyl)-5-(4-fluorophenyl)-4-oxo-1,4-dihydropyridine-3-carboxamide] | 1 to 10 nM
COCCn1cc(C(=O)Nc2ccc(-c3cc(-c4cnn(C[C@H]5COCCO5)c4)cnc3N)cc2)c(=O)c(-c2ccc(F)cc2)c1 [Example 66, N-[4-(2-Amino-5-{1-[(2S)-1,4-dioxan-2-ylmethyl]-1H-pyrazol-4-yl}pyridin-3-yl)phenyl]-5-(4-fluorophenyl)-1-(2-methoxyethyl)-4-oxo-1,4-dihydropyridine-3-carboxamide] | 1 to 10 nM
CCOCCn1cc(C(=O)Nc2ccc(-c3cc(-c4cnn(C[C@H]5COCCO5)c4)cnc3N)cc2)c(=O)c(-c2ccc(F)cc2)c1 [Example 67, N-[4-(2-Amino-5-{1-[(2S)-1,4-dioxan-2-ylmethyl]-1H-pyrazol-4-yl}pyridin-3-yl)phenyl]-1-(2-ethoxyethyl)-5-(4-fluorophenyl)-4-oxo-1,4-dihydropyridine-3-carboxamide] | 1 to 10 nM
CCN(CC)C(=O)c1cn(Cc2ccc(F)cc2)cc(C(=O)Nc2ccc(-c3cc(-c4cnn(C[C@H]5COCCO5)c4)cnc3N)cc2)c1=O [Example 70, N′-[4-(2-Amino-5-{1-[(2S)-1,4-dioxan-2-ylmethyl]-1H-pyrazol-4-yl}pyridin-3-yl)phenyl]-N,N-diethyl-1-(4-fluorobenzyl)-4-oxo-1,4-dihydropyridine-3,5-dicarboxamide] | 1 to 10 nM
Nc1ncc(-c2cnn(C[C@H]3COCCO3)c2)cc1-c1ccc(NC(=O)c2cn(Cc3ccc(F)cc3)cc(C(=O)N3CCCC3)c2=O)cc1 [Example 71, N-[4-(2-Amino-5-{1-[(2S)-1,4-dioxan-2-ylmethyl]-1H-pyrazol-4-yl}pyridin-3-yl)phenyl]-1-(4-fluorobenzyl)-4-oxo-5-(pyrrolidin-1-ylcarbonyl)-1,4-dihydropyridine-3-carboxamide] | 0.1 to 1 nM
Nc1ncc(-c2cnn(C[C@H]3COCCO3)c2)cc1-c1ccc(NC(=O)c2cn(Cc3ccc(F)cc3)cc(C(=O)N3CCC(F)(F)C3)c2=O)cc1 [Example 73, N-[4-(2-Amino-5-{1-[(2S)-1,4-dioxan-2-ylmethyl]-1H-pyrazol-4-yl}pyridin-3-yl)phenyl]-5-[(3,3-difluoropyrrolidin-1-yl)carbonyl]-1-(4-fluorobenzyl)-4-oxo-1,4-dihydropyridine-3-carboxamide] | 10 to 20 nM
Cc1nnc(-c2cn(Cc3ccc(F)cc3)cc(C(=O)Nc3ccc(-c4cc(-c5cnn(C[C@H]6COCCO6)c5)cnc4N)cc3)c2=O)o1 [Example 74, N-[4-(2-Amino-5-{1-[(2S)-1,4-dioxan-2-ylmethyl]-1H-pyrazol-4-yl}pyridin-3-yl)phenyl]-1-(4-fluorobenzyl)-5-(5-methyl-1,3,4-oxadiazol-2-yl)-4-oxo-1,4-dihydropyridine-3-carboxamide] | 0.1 to 1 nM
Nc1ncc(-c2cnn(C[C@H]3COCCO3)c2)cc1-c1ccc(NC(=O)c2cn(CCF)cc(-c3ccccc3)c2=O)cc1F [Example 75, N-[4-(2-Amino-5-{1-[(2S)-1,4-dioxan-2-ylmethyl]-1H-pyrazol-4-yl}pyridin-3-yl)-3-fluorophenyl]-1-(2-fluoroethyl)-4-oxo-5-phenyl-1,4-dihydropyridine-3-carboxamide] | 1 to 10 nM
Nc1ncc(-c2cnn(C[C@H]3COCCO3)c2)cc1-c1ccc(NC(=O)c2cn(Cc3ccc(F)cc3)cc(C(=O)N3CCCC3)c2=O)cc1F [Example 76, N-[4-(2-Amino-5-{1-[(2S)-1,4-dioxan-2-ylmethyl]-1H-pyrazol-4-yl}pyridin-3-yl)-3-fluorophenyl]-1-(4-fluorobenzyl)-4-oxo-5-(pyrrolidin-1-ylcarbonyl)-1,4-dihydropyridine-3-carboxamide] | 0.1 to 1 nM

Reference: US8933103B2, “Pyridone derivatives” (Daiichi Sankyo Company, Limited, priority 2012, dated 2015)
